From patent publication US9617242B2, “Histone demethylase inhibitors” (priority 2012, dated 2017)
Counter-ions that a name gives are not always drawn. Like-named read-outs stand apart in the source and are kept apart here.

Legend:
JMJD2C = JMJD2C (Homo sapiens (Human), UniProt Q9H3R0); assay: JMJD2C in vitro enzyme inhibition assay (TR-FRET); type: biochemical
Jarid1A = Jarid1A (Homo sapiens (Human), UniProt P29375); assay: Jarid1A in vitro enzyme inhibition assay (TR-FRET); type: biochemical
KDM5A/B = assay: In vitro cell-based assay: tri-methyl H3K4 immuno-blotting in ZR-75-1 breast cancer cells
Procedure: This quantitative immuno-blotting assay measures the amount tri-methylated histone H3 at amino acid Lysine number 4, a specific substrate […] of the direct enzymatic activity of the histone demethylases KDM5A and KDM5B from extracts of the ZR-75-1 breast cancer cell line.
This assay is a fluorometric immunoassay for the quantification of tri-methyl H3K4 extracted from cells treated with test compound and is used as a measure of the cellular inhibition of KDM5A/B.
Extracts were prepared containing all of the cellular histone material using detergent based lysis and sonication methods. These lysates were subsequently normalized for total protein content using a colorimetric bicinchonic acid assay (MicroBCA Pierce/Thermo Scientific). Normalized cell extracts were then subjected to typical immuno-blotting procedures using NuPage reagents (Life Technologies). Electrophoretically separated histones were then transferred and immobilized using polyvinylidene difluoride membrane (Immobilon-FL Millipore). The amount of tri-methylated lysine 4 of histone H3 was detected using an antibody specific to the tri-methylated state (Cell Signaling Technologies) and quantified on an infrared imager using a densitometry software package (Odyssey CLx, Image Studio, Li-Cor). This background subtracted densitometry value was reported as a ration of the GAPDH amount for that sample and then calculated as a percent of the DMSO treated sample. The software package XL-fit (IDBS) was then used to calculate a relative IC50 value for the dilution series of a given test compound according to the equation: fit=(D+((Vmax*(x^n))/((x^n)+(Km^n)))).

Jarid1B = Jarid1B (Homo sapiens (Human), UniProt Q9UGL1); assay: Jarid1B in vitro enzyme inhibition assay (TR-FRET); type: biochemical
Jarid1B, sequence (Q9UGL1 2-751): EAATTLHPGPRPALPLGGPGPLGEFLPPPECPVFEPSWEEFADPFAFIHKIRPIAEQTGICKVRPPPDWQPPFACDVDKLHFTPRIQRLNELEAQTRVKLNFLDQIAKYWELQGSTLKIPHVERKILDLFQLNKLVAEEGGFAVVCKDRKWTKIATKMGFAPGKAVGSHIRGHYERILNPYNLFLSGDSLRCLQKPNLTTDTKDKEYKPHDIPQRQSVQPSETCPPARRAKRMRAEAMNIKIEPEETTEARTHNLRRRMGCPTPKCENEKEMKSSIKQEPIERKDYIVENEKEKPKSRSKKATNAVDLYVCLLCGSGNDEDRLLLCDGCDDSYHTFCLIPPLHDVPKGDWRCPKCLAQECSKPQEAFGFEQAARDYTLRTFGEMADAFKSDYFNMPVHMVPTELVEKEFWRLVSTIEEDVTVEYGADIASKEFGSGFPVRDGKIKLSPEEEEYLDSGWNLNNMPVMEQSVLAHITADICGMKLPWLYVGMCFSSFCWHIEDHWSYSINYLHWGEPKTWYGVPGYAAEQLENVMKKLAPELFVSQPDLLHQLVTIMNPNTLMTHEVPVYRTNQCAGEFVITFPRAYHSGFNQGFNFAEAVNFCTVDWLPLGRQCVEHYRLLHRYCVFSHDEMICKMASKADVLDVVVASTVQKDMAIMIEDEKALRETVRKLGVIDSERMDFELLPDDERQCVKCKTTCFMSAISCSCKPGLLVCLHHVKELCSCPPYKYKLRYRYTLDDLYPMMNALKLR

[1] = 72 hours, read-out: Cellular IC50
[2] = read-out: Cellular IC50, 72 hours

JMJD2C, sequence (Q9H3R0 2-372): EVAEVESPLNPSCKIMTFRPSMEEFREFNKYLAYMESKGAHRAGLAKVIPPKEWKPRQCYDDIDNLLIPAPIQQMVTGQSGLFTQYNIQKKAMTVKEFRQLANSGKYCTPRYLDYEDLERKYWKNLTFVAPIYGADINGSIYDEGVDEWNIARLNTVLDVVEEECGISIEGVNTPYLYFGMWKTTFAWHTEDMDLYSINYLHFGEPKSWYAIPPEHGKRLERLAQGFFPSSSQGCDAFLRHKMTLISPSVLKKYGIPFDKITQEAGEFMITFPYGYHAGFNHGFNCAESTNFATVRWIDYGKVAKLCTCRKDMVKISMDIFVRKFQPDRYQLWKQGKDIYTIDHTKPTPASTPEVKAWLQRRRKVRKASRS
Jarid1A, sequence (P29375 1-1090): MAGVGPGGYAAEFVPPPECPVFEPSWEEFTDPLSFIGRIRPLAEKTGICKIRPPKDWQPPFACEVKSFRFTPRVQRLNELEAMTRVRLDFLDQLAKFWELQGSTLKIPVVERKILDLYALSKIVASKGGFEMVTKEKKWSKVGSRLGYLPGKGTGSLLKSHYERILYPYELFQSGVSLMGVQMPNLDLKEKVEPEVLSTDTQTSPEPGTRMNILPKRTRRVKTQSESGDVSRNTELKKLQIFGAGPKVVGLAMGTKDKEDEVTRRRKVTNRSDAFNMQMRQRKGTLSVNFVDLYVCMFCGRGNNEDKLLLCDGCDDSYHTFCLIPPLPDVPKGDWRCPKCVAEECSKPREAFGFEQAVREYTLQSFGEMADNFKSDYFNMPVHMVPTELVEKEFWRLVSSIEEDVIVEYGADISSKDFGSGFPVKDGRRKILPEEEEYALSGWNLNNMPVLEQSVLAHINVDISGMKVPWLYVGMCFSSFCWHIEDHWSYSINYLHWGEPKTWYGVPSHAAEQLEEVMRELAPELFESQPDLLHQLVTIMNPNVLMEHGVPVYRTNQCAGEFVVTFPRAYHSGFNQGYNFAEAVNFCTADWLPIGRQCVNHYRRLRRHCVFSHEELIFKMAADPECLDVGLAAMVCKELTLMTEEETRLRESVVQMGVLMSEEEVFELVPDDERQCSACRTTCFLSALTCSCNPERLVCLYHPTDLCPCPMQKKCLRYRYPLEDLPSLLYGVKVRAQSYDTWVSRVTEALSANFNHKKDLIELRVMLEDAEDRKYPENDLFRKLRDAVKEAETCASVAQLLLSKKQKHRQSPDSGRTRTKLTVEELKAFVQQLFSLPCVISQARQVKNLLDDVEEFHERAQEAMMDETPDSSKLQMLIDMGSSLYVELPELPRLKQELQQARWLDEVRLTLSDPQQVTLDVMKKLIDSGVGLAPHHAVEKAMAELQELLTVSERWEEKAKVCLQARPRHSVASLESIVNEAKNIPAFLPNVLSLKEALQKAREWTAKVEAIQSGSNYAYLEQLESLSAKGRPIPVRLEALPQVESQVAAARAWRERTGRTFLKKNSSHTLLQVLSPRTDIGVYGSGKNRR

`Cn1nc(Nc2cnccc2C(=O)O)c2ccccc21` [Example 1, 3-[(1-methyl-1H-indazol-3-yl)amino]pyridine-4-carboxylic acid] was tested, and the IC50 (JMJD2C) was < 0.1 µM, the IC50 (Jarid1A) was < 0.1 µM and the IC50 (KDM5A/B; [1]) was 1 to 10 µM. For the same compound, the IC50 (Jarid1B) was < 0.1 µM.

For `O=C(O)c1ccncc1Nc1noc2ccccc12` [Example 3, 3-(1,2-benzoxazol-3-ylamino]pyridine-4-carboxylic acid], the IC50 (JMJD2C) was < 0.1 µM, the IC50 (Jarid1A) was < 0.1 µM and the IC50 (Jarid1B) was < 0.1 µM.

`Cn1nc(Nc2cnccc2C(=O)O)c2cc(F)ccc21` [Example 7, 3-[(5-fluoro-1-methyl-1H-indazol-3-yl)amino]pyridine-4-carboxylic acid] was tested, and the IC50 (JMJD2C) was < 0.1 µM, the IC50 (Jarid1A) was < 0.1 µM and the IC50 (KDM5A/B; [1]) was 1 to 10 µM. For the same compound, the IC50 (Jarid1B) was < 0.1 µM.

With `CN(C)CCOCCn1nc(Nc2cnccc2C(=O)O)c2ccccc21` [Example 11, 3-[(1-{2-[2-(dimethylamino)ethoxy]ethyl}-1H-indazol-3-yl)amino]pyridine-4-carboxylic acid] the IC50 (JMJD2C) was < 0.1 µM, the IC50 (Jarid1A) was < 0.1 µM and the IC50 (KDM5A/B; [1]) was > 10 µM. For the same compound, the IC50 (Jarid1B) was < 0.1 µM.

For `Cn1nc(Nc2cnccc2C(=O)O)c2c(F)cccc21` [Example 13, 3-[(4-fluoro-1-methyl-1H-indazol-3-yl)amino]pyridine-4-carboxylic acid], the IC50 (JMJD2C) was < 0.1 µM, the IC50 (Jarid1A) was < 0.1 µM and the IC50 (Jarid1B) was < 0.1 µM.

For `Cn1nc(Nc2cnccc2C(=O)O)c2cc(C(F)(F)F)ccc21` [Example 14, 3-[(5-trifluoromethyl-1-methyl-1H-indazol-3-yl)amino]pyridine-4-carboxylic acid], the IC50 (JMJD2C) was < 0.1 µM, the IC50 (Jarid1A) was < 0.1 µM and the IC50 (KDM5A/B; [1]) was 1 to 10 µM. For the same compound, the IC50 (Jarid1B) was < 0.1 µM.

For `COCCCn1nc(Nc2cnccc2C(=O)O)c2cc(F)ccc21` [Example 17, 3-{[5-fluoro-1-(methoxypropyl)-1H-indazol-3-yl]amino}pyridine-4-carboxylic acid], the IC50 (JMJD2C) was < 0.1 µM, the IC50 (Jarid1A) was < 0.1 µM and the IC50 (KDM5A/B; [1]) was > 10 µM. For the same compound, the IC50 (Jarid1B) was < 0.1 µM.

With `CCCn1nc(Nc2cnccc2C(=O)O)c2cccc(F)c21` [Example 20, 3-[(7-fluoro-1-propyl-1H-indazol-3-yl)amino]pyridine-4-carboxylic acid] the IC50 (JMJD2C) was < 0.1 µM, the IC50 (Jarid1A) was < 0.1 µM and the IC50 (KDM5A/B; [1]) was 1 to 10 µM. The IC50 (Jarid1B) was < 0.1 µM.

With `CN(C)CCOCCn1nc(Nc2cnccc2C(=O)O)c2cc(F)ccc21` [Example 27, 3-[(1-{2-[2-(dimethylamino)ethoxy]ethyl}-5-fluoro-1H-indazol-3-yl)amino]pyridine-4-carboxylic acid, acetic acid salt] the IC50 (JMJD2C) was < 0.1 µM, the IC50 (Jarid1A) was < 0.1 µM and the IC50 (KDM5A/B; [1]) was > 10 µM. The IC50 (Jarid1B) was < 0.1 µM.

`O=C(O)c1ccncc1Nc1nn(CCC2CC2)c2ccc(F)cc12` [Example 31, 3-{[1-(cyclopropylethyl)-5-fluoro-1H-indazol-3-yl]amino}pyridine-4-carboxylic acid] was tested, and the IC50 (Jarid1A) was < 0.1 µM, the IC50 (KDM5A/B; [1]) was 1 to 10 µM and the IC50 (Jarid1B) was < 0.1 µM.

With `O=C(O)c1ccncc1Nc1nn(CCC(F)(F)F)c2ccc(F)cc12` [Example 32, 3-{[5-fluoro-1-(3,3,3-trifluoropropyl)-1H-indazol-3-yl]amino}pyridine-4-carboxylic acid] the IC50 (Jarid1A) was < 0.1 µM, the IC50 (KDM5A/B; [1]) was 0.1 to 1 µM and the IC50 (Jarid1B) was < 0.1 µM.

In the case of `CCCn1nc(Nc2cnccc2C(=O)O)c2cc(Cl)ccc21` [Example 33, 3-[(5-chloro-1-propyl-1H-indazol-3-yl)amino]pyridine-4-carboxylic acid], the IC50 (Jarid1A) is reported as < 0.1 µM, the IC50 (KDM5A/B; [1]) is reported as 0.1 to 1 µM and the IC50 (Jarid1B) is reported as < 0.1 µM.

In the case of `O=C(O)c1ccncc1Nc1nn(CC2CC2)c2ccc(Cl)cc12` [Example 34, 3-{[5-chloro-1-(cyclopropylmethyl)-1H-indazol-3-yl]amino}pyridine-4-carboxylic acid], the IC50 (Jarid1A) is reported as < 0.1 µM, the IC50 (KDM5A/B; [1]) is reported as 1 to 10 µM and the IC50 (Jarid1B) is reported as < 0.1 µM.

In the case of `O=C(O)c1ccncc1Nc1nn(CCC(F)(F)F)c2ccc(Cl)cc12` [Example 35, 3-{[5-chloro-1-(3,3,3-trifluoropropyl)-1H-indazol-3-yl]amino}pyridine-4-carboxylic acid], the IC50 (Jarid1A) is reported as < 0.1 µM, the IC50 (KDM5A/B; [1]) is reported as 0.1 to 1 µM and the IC50 (Jarid1B) is reported as < 0.1 µM.

`Cc1ccc2c(c1)c(Nc1cnccc1C(=O)O)nn2CC1CC1` [Example 37, 3-{[1-(cyclopropylmethyl)-5-methyl-1H-indazol-3-yl]amino}pyridine-4-carboxylic acid] was tested, and the IC50 (Jarid1A) was < 0.1 µM, the IC50 (KDM5A/B; [1]) was 0.1 to 1 µM and the IC50 (Jarid1B) was < 0.1 µM.

With `CN(C)CCOCCn1nc(Nc2cnccc2C(=O)O)c2cc(Cl)ccc21` [Example 40, 3-[(1-{2-[2-(dimethylamino)ethoxy]ethyl}-5-chloro-1H-indazol-3-yl)amino]pyridine-4-carboxylic acid, trifluoroacetic acid salt] the IC50 (JMJD2C) was < 0.1 µM, the IC50 (Jarid1A) was < 0.1 µM and the IC50 (Jarid1B) was < 0.1 µM.

For `CN1CCC(CCn2nc(Nc3cnccc3C(=O)O)c3cc(F)ccc32)CC1` [Example 41, 3-({5-fluoro-1-{2-(1-methylpiperidin-4-yl)ethyl]-1H-indazol-3-yl]amino)pyridine-4-carboxylic acid, trifluroacetic acid salt], the IC50 (JMJD2C) was < 0.1 µM, the IC50 (Jarid1A) was < 0.1 µM and the IC50 (Jarid1B) was < 0.1 µM.

For `O=C(O)c1ccncc1Nc1nn(CCCO)c2ccc(F)cc12` [Example 42, 3-{[5-fluoro-1-(3-hydroxypropyl)-1H-indazol-3-yl]amino}pyridine-4-carboxylic acid], the IC50 (JMJD2C) was < 0.1 µM, the IC50 (Jarid1A) was < 0.1 µM and the IC50 (KDM5A/B; [1]) was 1 to 10 µM. The IC50 (Jarid1B) was < 0.1 µM.

For `CN(C)CCCCn1nc(Nc2cnccc2C(=O)O)c2cc(F)ccc21` [Example 43, 3-({1-[4-(dimethylamino)butyl]-5-fluoro-1H-indazol-3-yl}amino)pyridine-4-carboxylic acid, trifluoroacetic acid salt], the IC50 (JMJD2C) was < 0.1 µM, the IC50 (Jarid1A) was < 0.1 µM and the IC50 (KDM5A/B; [2]) was 1 to 10 µM. The IC50 (Jarid1B) was < 0.1 µM.

In the case of `O=C(O)c1ccncc1Nc1nn(CCCCCO)c2ccc(F)cc12` [Example 44, 3-{[5-fluoro-1-(5-hydroxypentyl)-1H-indazol-3-yl]amino}pyridine-4-carboxylic acid], the IC50 (JMJD2C) is reported as < 0.1 µM, the IC50 (Jarid1A) is reported as < 0.1 µM and the IC50 (Jarid1B) is reported as < 0.1 µM.

With `CCCn1nc(Nc2cnccc2C(=O)O)c2cccc(C)c21` [Example 45] the IC50 (JMJD2C) was 0.1 to 1 µM and the IC50 (KDM5A/B; [1]) was 1 to 10 µM.

`O=C(O)c1ccncc1Nc1nn(CCC2CCCNC2)c2ccc(F)cc12` (stereo not drawn) [Example 47, 3-({5-fluoro-1-[2-(piperidin-3-yl)ethyl]-1H-indazol-3-yl}amino)pyridine-4-carboxylic acid, trifluoroacetic acid salt] was tested, and the IC50 (JMJD2C) was < 0.1 µM, the IC50 (Jarid1A) was < 0.1 µM and the IC50 (KDM5A/B; [2]) was > 10 µM. The IC50 (Jarid1B) was < 0.1 µM.

In the case of `O=C(O)c1ccncc1Nc1nn(CC(O)CO)c2ccc(F)cc12` (stereo not drawn) [Example 48, 3-{[1-(2,3-dihydroxypropyl)-5-fluoro-1H-indazol-3-yl]amino}pyridine-4-carboxylic acid], the IC50 (JMJD2C) is reported as < 0.1 µM, the IC50 (Jarid1A) is reported as < 0.1 µM and the IC50 (KDM5A/B; [1]) is reported as > 10 µM. The IC50 (Jarid1B) was < 0.1 µM.

In the case of `O=C(O)c1ccncc1Nc1nn(CCN2CCCC2)c2ccc(F)cc12` [Example 50, 3-({5-fluoro-1-[2-(pyrrolidin-1-yl)ethyl]-1H-indazol-3-yl}amino)pyridine-4-carboxylic acid], the IC50 (JMJD2C) is reported as < 0.1 µM, the IC50 (Jarid1A) is reported as < 0.1 µM and the IC50 (KDM5A/B; [1]) is reported as 1 to 10 µM. For the same compound, the IC50 (Jarid1B) was < 0.1 µM.

`CC(O)Cn1nc(Nc2cnccc2C(=O)O)c2cc(F)ccc21` (stereo not drawn) [Example 51, 3-{[5-fluoro-1-(2-hydroxypropyl)-1H-indazol-3-yl]amino}pyridine-4-carboxylic acid] was tested, and the IC50 (JMJD2C) was < 0.1 µM, the IC50 (Jarid1A) was < 0.1 µM and the IC50 (KDM5A/B; [1]) was 1 to 10 µM. For the same compound, the IC50 (Jarid1B) was < 0.1 µM.

`O=C(O)c1ccncc1Nc1nn(CC(O)C(F)(F)F)c2ccc(F)cc12` (stereo not drawn) [Example 55, 3-{[5-fluoro-1-(3,3,3-trifluoro-2-hydroxypropyl)-1H-indazol-3-yl]amino}pyridine-4-carboxylic acid] was tested, and the IC50 (JMJD2C) was < 0.1 µM, the IC50 (Jarid1A) was < 0.1 µM and the IC50 (Jarid1B) was < 0.1 µM.

`O=C(O)c1ccncc1Nc1nn(CCN2CCOCC2)c2ccc(F)cc12` [Example 56, 3-({5-fluoro-1-[2-(morpholin-1-yl)ethyl]-1H-indazol-3-yl}amino)pyridine-4-carboxylic acid] was tested, and the IC50 (JMJD2C) was < 0.1 µM, the IC50 (Jarid1A) was < 0.1 µM and the IC50 (Jarid1B) was < 0.1 µM.

`O=C(O)c1ccncc1Nc1cn(CCC(F)(F)F)c2ccc(Cl)cc12` [Example 59, 3-{[5-chloro-1-(3,3,3-trifluoropropyl)-1H-indol-3-yl]amino}pyridine-4-carboxylic acid] was tested, and the IC50 (Jarid1A) was < 0.1 µM, the IC50 (KDM5A/B; [1]) was 1 to 10 µM and the IC50 (Jarid1B) was < 0.1 µM.

For `O=C(O)c1ccncc1Nc1nn(C2CCOC2)c2ccc(Cl)cc12` (stereo not drawn) [Example 69, 3-{[5-chloro-1-(tetrahydrofuran-3-yl)-1H-indazol-3-yl]amino}pyridine-4-carboxylic acid], the IC50 (Jarid1A) was < 0.1 µM, the IC50 (KDM5A/B; [1]) was 1 to 10 µM and the IC50 (Jarid1B) was < 0.1 µM.

With `N#CNC(=O)c1ccncc1Nc1nn(CCN2CCCC2)c2ccc(F)cc12` [Example 77, N-cyano-3-({5-fluoro-1-[2-(pyrrolidin-1-yl)ethyl]-1H-indazol-3-yl}amino)pyridine-4-carboxamide] the IC50 (JMJD2C) was < 0.1 µM, the IC50 (Jarid1A) was < 0.1 µM and the IC50 (Jarid1B) was < 0.1 µM.

For `O=C(O)c1ccncc1Nc1nn(CCN2CCCC2)c2ccc(Cl)cc12` [Example 78, 3-({5-chloro-1-[2-(pyrrolidin-1-yl)ethyl]-1H-indazol-3-yl}amino)pyridine-4-carboxylic acid], the IC50 (JMJD2C) was < 0.1 µM, the IC50 (Jarid1A) was < 0.1 µM and the IC50 (Jarid1B) was < 0.1 µM.
